The values below come from paper PMC7997411, “Discovery and Optimization of Selective Inhibitors of Meprin α (Part II)” (Pharmaceuticals, 2021).

In data set [1] the target is T1, MMP10 (Homo sapiens, UniProt P09238).
T1 construct: purchased R&D Systems 910-MP
The data set can be described thus: MMP assay (fluorogenic substrate ES010). In kind it is biochemical. Here is the method: (§1) MMP-1, MMP-2, MMP-8, MMP-9, MMP-10, MMP-13, MMP-14, ADAM10, ADAM17 and Mca-KPLGL-Dpa-AR-NH2 fluorogenic peptide substrate were purchased from R&D Systems (cat # 901-MP, 902-MP, 908-MP, 911-MP, 910-MP, 511-MM, 918-MP, 936-AD, 930-ADB, and ES010, respectively). All common chemicals were purchased from Sigma. NFF449 was purchased from Tocris (cat# 1391) and actinonin was from Sigma-Aldrich, St. Louis, MO, USA (cat# 01809).
(§2) All assays followed the same general protocol. 5 µL of 2× enzyme solution (5 nM) in assay buffer (50 mM Tricine, 50 mM NaCl, 10 mM CaCl2, 0.05% Brij-35, pH 7.5) were added to solid-bottom black 384 plates (Nunc, cat# 264705). Next, test compounds and pharmacological controls were added to corresponding wells using a 384-pin tool device (V&P Scientific, San Diego). After 30 min incubation at RT, the reactions were started by addition of 5 µL of 2× solutions of MMP substrate (R&D Systems cat#: ES010, 20 µM). Reactions were incubated at RT for 1 h, after which the fluorescence was measured using the Synergy H4 multimode microplate reader (Biotek Instruments) (λexcitation = 324 nm, λemission = 390 nm). All compounds were tested in 10-point, 1:3 serial dilutions dose-response format starting with highest concentration of 100 µM. IC50 values were determined using non-linear regression analysis using the GraphPad Prism 8.0 suite of programs.

Data set [2] relates to HEK293 (kidney) and BJ (skin fibroblasts) cells. The data set can be described thus: Cytotoxicity, CellTox Green assay. In kind it is cell-based. Here is the method: Figure 6 Characterization of SR24717 for effects on cell viability and cytotoxicity. (A) Effect of SR24717 on viability of WM266-4 (skin melanoma), HEK293 (kidney), and BJ (skin fibroblasts) cells. CellTiter Glo™ assay (Promega) was used after 72 h treatment. (B) Effect of SR24717 on viability of HEK293 (kidney) and BJ (skin fibroblasts) cells. The CellTox Green™ assay (Promega) was used. All experiments performed as 10-point 3-fold concentration-response curves in triplicate.

The target in data set [3] is MMP3 (Homo sapiens, UniProt P08254). The data set can be described thus: MMP assay (fluorogenic substrate ES010). It is filed as biochemical. Here is the method: as §2
Data set [4] concerns the target T2, meprin α (Homo sapiens, UniProt Q16819).
T2 construct: Strep-tag; made in house; host or cells: BTI-TN-5B1-4 insect cells (baculovirus, amplified in Sf9)
T2 sequence (Q16819 66-746): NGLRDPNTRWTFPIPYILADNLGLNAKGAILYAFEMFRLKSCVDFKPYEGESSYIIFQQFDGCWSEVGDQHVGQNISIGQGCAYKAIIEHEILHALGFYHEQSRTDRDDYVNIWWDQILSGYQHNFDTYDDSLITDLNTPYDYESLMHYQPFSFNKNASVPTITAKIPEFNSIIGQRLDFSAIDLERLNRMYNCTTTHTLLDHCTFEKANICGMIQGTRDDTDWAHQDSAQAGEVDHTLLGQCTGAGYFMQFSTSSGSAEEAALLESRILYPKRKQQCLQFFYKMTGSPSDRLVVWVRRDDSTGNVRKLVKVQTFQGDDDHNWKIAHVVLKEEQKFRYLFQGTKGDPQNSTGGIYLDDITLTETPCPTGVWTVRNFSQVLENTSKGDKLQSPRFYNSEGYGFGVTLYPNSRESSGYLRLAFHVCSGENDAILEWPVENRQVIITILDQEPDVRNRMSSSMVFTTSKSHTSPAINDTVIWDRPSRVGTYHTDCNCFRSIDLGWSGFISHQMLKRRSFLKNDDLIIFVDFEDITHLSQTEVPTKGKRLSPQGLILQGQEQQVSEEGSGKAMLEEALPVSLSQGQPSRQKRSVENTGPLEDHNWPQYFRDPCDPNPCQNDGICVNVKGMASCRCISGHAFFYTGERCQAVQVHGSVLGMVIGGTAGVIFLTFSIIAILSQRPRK
The experiment in a line: Meprin α assay in a 384-well plate (fluorogenic substrate Mca-YVADAPK-K(Dnp)). To be noted: pre-incubation with meprin α for 0–3 h. In kind it is biochemical.

Data set [5] deals with T3, MMP1 (Homo sapiens, UniProt P03956).
T3 construct: purchased R&D Systems 901-MP
T3 sequence (P03956 100-469): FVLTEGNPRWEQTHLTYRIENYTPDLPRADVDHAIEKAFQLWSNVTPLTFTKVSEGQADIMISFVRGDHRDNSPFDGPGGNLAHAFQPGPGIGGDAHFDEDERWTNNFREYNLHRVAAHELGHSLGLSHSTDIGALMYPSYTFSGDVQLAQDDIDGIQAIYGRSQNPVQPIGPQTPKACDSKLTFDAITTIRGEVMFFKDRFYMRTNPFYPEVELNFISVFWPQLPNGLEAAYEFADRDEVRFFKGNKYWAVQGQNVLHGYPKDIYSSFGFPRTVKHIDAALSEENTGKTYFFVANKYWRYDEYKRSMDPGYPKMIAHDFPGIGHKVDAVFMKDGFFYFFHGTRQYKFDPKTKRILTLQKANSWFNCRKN
The experiment in a line: MMP assay (fluorogenic substrate ES010). It is filed as biochemical. Here is the method: as §1, §2

Bounds are passed on as bounds.

T1 sequence (P09238 99-476): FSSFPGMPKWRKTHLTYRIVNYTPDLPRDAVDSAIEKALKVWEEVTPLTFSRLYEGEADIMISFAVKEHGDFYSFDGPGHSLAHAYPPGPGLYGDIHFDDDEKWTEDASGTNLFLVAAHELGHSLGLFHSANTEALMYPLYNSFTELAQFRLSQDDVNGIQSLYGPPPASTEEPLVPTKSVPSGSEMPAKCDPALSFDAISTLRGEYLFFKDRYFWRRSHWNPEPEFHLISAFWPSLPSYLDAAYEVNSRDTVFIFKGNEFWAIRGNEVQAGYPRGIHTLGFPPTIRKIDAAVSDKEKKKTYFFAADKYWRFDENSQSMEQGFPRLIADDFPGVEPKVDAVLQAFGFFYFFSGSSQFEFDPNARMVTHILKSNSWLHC
MMP3, sequence (P08254 100-477, species assumed): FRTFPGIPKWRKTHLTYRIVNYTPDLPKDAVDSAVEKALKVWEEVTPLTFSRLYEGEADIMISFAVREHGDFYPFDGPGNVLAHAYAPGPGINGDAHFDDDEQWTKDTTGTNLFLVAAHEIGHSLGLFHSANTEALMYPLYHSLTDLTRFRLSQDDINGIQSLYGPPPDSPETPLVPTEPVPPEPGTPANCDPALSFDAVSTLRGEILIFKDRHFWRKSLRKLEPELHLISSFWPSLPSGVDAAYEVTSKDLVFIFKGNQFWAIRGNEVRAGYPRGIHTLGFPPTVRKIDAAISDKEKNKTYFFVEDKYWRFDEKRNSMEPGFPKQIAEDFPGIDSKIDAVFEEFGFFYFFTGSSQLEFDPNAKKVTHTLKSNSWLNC

Regarding `COc1cc(OC)nc(SCc2nnc(SCC(=O)NO)n2-c2ccc(N(C)C)cc2)n1` [SR24717], the IC50 in data set [1] and in data set [3] was more than 100 µM each time. The “concentration at which cytotoxicity was observed” value in data set [2] amounted to 100 µM. In addition, in data set [4], the “time dependence of inhibition: change in IC50 values” is “no change in IC50 values”.
In the case of `CCCCC[C@H](CC(=O)NO)C(=O)N[C@H](C(=O)N1CCC[C@H]1CO)C(C)C` [Actinonin, actinonin, reference compound], the IC50 in data set [5] was 0.1 µM.
